Data published in patent US12606554B2, “Compounds and pharmaceutical compositions thereof for the treatment of diseases” (ONCO3R Therapeutics BV, priority 2019, dated 2026).
pEC50, pIC50: −log10 of the molar value.

Legend:
[1] = system: LPS-induced TNFα in monocytes; test: Monocytes assay: LPS-triggered TNFα (ELISA); type: cell-based; settings: Homo sapiens, Monocyte, LPS 200 ng/mL, supernatant after 4 h
Description: SIK inhibition inhibits TNFα and increases IL-10 release in LPS triggered monocyte-derived macrophages (MdM) and dendritic cells (MdDCs) (Clark et al. 2012; Sundberg et al. 2014; Ozanne et al. 2015). This assay evaluates illustrative compounds of the invention for their inhibition of LPS-induced TNFα and LPS triggered IL-10 secretion in monocytes.
PBMCs are isolated from human blood samples (buffycoats). The buffy coat is aseptically transferred into a 50 mL Falcon tube, and diluted ½ in PBS. Falcon tubes are filled with 20 mL Lymphoprep™, on top of which 25 mL of the buffy coat is carefully added, tubes are centrifuged for 35 min at 400 g in temperature controlled centrifuge, without brake, at 25° C. PBMCs are aspirated from the white interface layer between sample and Lymphoprep™. PBMCs are washed five times in PBS. Cells are resuspended in RPMI 1640 complete medium supplemented with 10% FBS, 1% P/S, and cell density is determined using a hematologic analyzer (Sysmex XS-500i).
PBMCs are centrifuged at 300×g for 10 min and resuspended at a density of 1.0*10^7 cells/80 μL Miltenyi buffer (PBS, pH 7.4, 1% FBS, 2 mM EDTA).
Starting from this point of the protocol all steps are performed on ice. 20 μL of CD14+ micro-beads are added per 1.0*10^7 cells, the tube is mixed and incubated for 15 min in the fridge at 4° C. Cell suspension volume is adjusted to total volume of 100 mL using Miltenyi buffer, mixed gently and subsequently centrifuged for 10 min at 300×g. Supernatant is discarded and cell pellet is resuspended in 12 mL of Miltenyi buffer.
Four LS columns are placed in the MACS Separator (magnet) from Miltenyi Biotec, and are prewet by rinsing with 3 mL of MACS buffer per column. Three mL of cell suspension is added onto the column (max 1*10^8 of labelled cells/column), and columns are subsequently washed 3 times with 3 mL of Miltenyi buffer.
The columns are removed from the magnets, and 5 mL of Miltenyi buffer are added to the column to flush out the CD14+ fraction by pushing the plunger into the column. The flushed fractions are collected in a fresh 50 mL Falcon and volume is adjusted to 30 mL using Miltenyi buffer, cells are centrifuged for 10 min at 300×g. The obtained cell pellet is resuspended in 10 mL RPMI w/o FBS, and cell density is determined using a hematologic analyser (Sysmex XS-500i). 100 000 cells are seeded in 80 μL per well of a 96-well plate in RPMI 1640 medium supplemented with 10% FBS, 1% P/S.
A compound dilution plate is made in 100% DMSO by 3-fold dilution of 10 mM stock solution. An intermediate dilution plate (10× final concentration) is made by diluting the compound dilution plate 50-fold in RPMI medium.
10 μL of the 10× final concentration compound is added to the cells and incubated for 1 h at 37° C. before addition of trigger. […]

SIK2 = target: T1, SIK2 (Homo sapiens, UniProt Q9H0K1); test: ADP-Glo kinase assay, SIK2; type: biochemical; settings: AMARA peptide 45 μM, 5 μM ATP, 120 min
T1 construct: purchased ThermoFisher Scientific PV4792
From the text: (§1) The ADP-Glo™ kinase assay is a luminescent technology assay which measures the ADP formed from a kinase reaction. In this specific study, the kinase reactions consisted of the phosphorylation of the AMARA peptide substrate (SignalChem, Cat #A11-58) by SIK1 (Carma Biosciences, Cat #02-131), SIK2 (ThermoFisher Scientific, Cat #PV4792) or SIK3 (SignalChem, Cat #S12-11G-100). In a second step the kinase reactions are terminated and all the remaining ATP is depleted. In a final step the ADP is converted into ATP and this newly synthesized ATP is measured by using a luciferase/luciferin reaction. The generated light is measured using an Envision plate reader, wherein the luminescent signal obtained positively correlates with the kinase activity.
(§2) The test compounds are prepared as a serial dilution of 10 point dose responses with ⅕ dilution steps in 100% DMSO starting from 2 mM highest concentration, diluted 1/20 in water and […] is transferred to the assay plates (PerkinElmer Inc., Cat #6007290).
(§3) 1% DMSO and 10 μM staurosporine final concentrations are used as negative and positive controls.
(§4) 2 μL enzyme-substrate mixture is added to the assay plates.
(§5) The reaction is started by adding 2 μL diluted ATP on the assay plates. Plates are centrifuged for a few seconds at 1000 rpm and gently shaken for 2 min followed by an incubation at RT for 120 min.
(§6) The reactions are stopped and the unconsumed ATP is depleted by adding 5 μL ADP-Glo Reagent (Promega, Cat #V9121B) to the reaction. The plates are centrifuged for a few seconds at 1000 rpm and incubated at RT for […] (ATP depletion).
(§7) The ADP is converted to ATP and luciferase and luciferin is introduced to detect ATP by adding 10 μL Kinase Detection Reagent (Promega, Cat #V913B+V914r) to the reaction. The plates are centrifuged for a few seconds at 1000 rpm and incubated at RT for 30 min (ADP detection).
(§8) Luminescence is measured on an Envision plate reader (PerkinElmer Inc.).
(§9) Raw data are generated following the read-out performed on the TopCount, plotted to generate dose response curves to calculate percentage inhibition (PIN) and average IC50 for each SIK homologue which are reported in the table below.

SIK1 = target: T2, SIK1 (Homo sapiens, UniProt P57059); test: ADP-Glo kinase assay, SIK1; type: biochemical; settings: AMARA peptide 45 μM, 5 μM ATP, 120 min, read-out: SIM1 IC50
T2 construct: purchased Carna Biosciences 02-131
From the text: as §1, §2, §3, §4, §5, §6, §7, §8, §9

SIK3 = target: T3, SIK3 (Homo sapiens, UniProt Q9Y2K2); test: ADP-Glo kinase assay, SIK3; type: biochemical; settings: AMARA peptide 45 μM, 5 μM ATP, 120 min
T3 construct: purchased SignalChem S12-11G-100
From the text: as §1, §2, §3, §4, §5, §6, §7, §8, §9

T2 sequence (P57059 whole entry): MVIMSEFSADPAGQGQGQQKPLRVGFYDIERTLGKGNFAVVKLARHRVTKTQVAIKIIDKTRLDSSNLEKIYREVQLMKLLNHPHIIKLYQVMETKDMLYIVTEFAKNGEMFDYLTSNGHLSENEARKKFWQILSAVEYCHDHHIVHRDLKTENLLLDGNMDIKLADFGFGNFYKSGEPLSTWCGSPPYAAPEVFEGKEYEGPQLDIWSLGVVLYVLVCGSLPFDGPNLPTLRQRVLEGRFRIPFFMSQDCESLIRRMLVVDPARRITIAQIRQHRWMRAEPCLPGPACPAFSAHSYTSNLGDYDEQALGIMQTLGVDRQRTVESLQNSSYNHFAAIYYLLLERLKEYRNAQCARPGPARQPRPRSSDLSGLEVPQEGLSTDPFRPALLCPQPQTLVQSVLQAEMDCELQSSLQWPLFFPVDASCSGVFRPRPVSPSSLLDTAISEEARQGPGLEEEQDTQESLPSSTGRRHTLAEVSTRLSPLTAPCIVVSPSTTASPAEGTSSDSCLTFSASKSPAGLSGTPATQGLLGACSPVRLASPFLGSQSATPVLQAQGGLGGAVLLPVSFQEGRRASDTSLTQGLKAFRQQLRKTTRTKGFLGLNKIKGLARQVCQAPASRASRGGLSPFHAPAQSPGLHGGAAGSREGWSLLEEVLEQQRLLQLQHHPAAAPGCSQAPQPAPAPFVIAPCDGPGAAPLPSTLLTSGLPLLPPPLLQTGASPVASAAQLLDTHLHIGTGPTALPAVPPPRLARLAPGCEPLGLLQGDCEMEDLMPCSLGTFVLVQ
T3 sequence (Q9Y2K2 whole entry): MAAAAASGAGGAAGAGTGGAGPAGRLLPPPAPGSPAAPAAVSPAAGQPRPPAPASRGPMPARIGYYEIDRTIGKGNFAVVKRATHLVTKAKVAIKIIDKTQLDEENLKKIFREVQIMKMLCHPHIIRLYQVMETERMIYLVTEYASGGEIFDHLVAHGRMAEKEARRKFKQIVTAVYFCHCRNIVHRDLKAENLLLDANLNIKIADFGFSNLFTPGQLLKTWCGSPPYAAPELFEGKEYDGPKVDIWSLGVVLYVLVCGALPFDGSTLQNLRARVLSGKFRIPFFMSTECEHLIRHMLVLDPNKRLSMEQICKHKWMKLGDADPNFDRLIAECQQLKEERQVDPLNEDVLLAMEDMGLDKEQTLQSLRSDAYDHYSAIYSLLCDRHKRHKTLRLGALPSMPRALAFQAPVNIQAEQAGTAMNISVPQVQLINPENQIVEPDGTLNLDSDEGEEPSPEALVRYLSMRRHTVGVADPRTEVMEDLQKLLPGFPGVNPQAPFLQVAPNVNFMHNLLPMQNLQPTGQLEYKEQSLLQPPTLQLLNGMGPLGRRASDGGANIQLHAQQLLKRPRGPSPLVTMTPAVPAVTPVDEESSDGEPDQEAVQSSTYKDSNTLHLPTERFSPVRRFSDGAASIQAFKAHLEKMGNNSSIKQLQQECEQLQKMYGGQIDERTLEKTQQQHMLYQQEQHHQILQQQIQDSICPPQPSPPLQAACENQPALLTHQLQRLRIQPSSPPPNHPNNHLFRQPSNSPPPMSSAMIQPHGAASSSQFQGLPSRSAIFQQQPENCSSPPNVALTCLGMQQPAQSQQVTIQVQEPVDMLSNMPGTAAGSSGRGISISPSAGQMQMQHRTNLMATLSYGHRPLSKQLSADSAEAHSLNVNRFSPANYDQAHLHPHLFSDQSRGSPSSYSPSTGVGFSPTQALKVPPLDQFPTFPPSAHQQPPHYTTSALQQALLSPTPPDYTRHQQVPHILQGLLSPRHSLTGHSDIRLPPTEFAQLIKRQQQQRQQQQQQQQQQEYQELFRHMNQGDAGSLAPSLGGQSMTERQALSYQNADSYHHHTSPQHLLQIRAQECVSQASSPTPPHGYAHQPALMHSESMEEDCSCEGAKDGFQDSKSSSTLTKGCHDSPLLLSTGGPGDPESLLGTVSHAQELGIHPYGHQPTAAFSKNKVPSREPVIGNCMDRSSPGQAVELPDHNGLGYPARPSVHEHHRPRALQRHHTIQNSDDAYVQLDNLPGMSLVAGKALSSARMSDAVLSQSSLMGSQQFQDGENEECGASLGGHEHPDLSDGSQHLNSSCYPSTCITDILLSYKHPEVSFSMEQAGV
T1 sequence (Q9H0K1 whole entry): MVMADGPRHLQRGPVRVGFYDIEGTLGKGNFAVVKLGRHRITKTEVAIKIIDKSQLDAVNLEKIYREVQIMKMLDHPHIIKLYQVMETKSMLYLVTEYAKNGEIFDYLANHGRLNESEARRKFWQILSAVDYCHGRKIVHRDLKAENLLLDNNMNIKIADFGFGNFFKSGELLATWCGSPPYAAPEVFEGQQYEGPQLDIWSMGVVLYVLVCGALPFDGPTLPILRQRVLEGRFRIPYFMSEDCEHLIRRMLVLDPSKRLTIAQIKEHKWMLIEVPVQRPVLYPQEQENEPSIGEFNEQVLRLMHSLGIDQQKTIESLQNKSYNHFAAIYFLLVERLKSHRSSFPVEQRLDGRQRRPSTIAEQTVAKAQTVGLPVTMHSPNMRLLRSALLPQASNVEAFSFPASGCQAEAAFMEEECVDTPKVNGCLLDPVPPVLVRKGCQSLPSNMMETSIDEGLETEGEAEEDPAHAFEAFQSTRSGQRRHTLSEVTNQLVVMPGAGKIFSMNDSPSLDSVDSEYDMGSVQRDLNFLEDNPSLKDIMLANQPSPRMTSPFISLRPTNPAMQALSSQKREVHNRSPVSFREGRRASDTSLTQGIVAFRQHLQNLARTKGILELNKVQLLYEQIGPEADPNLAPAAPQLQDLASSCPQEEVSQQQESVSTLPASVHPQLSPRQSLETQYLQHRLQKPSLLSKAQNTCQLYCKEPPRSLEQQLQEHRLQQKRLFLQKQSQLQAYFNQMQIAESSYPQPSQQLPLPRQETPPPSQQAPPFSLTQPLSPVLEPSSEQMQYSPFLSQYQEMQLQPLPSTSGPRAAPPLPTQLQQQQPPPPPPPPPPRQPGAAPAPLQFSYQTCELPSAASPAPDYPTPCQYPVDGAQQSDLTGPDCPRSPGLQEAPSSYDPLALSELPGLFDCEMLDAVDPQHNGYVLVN

Row | pEC50 [1] | pIC50 (SIK2) | pIC50 (SIK1) | pIC50 (SIK3) | SMILES
1 | 6.00 to 7.00 | 6.30 to 7.00 | < 6.30 | 7.00 to 8.00 | COc1cc(-c2cnn3cc(OC(C)(C)CN4CCOCC4)ccc23)cc(OC(F)F)c1C(=O)N[C@@H]1C[C@@H]1F [Cpd 3, 2-(difluoromethoxy)-4-[6-(1,1-dimethyl-2-morpholino-ethoxy)pyrazolo[1,5-a]pyridin-3-yl]-N-[(1R,2S)-2-fluorocyclopropyl]-6-methoxy-benzamide]
2 | 6.00 to 7.00 | 6.30 to 7.00 | < 6.30 | 8.00 to 11.00 | COc1cc(-c2cnn3cc(OC(C)(C)CO)ccc23)cc(OC(F)F)c1C(=O)N[C@@H]1C[C@@H]1F [Cpd 2, 2-(difluoromethoxy)-N-[(1R,2S)-2-fluorocyclopropyl]-4-[6-(2-hydroxy-1,1-dimethyl-ethoxy)pyrazolo[1,5-a]pyridin-3-yl]-6-methoxy-benzamide]
3 | 6.00 to 7.00 | 8.00 to 11.00 | 6.30 to 7.00 | 8.00 to 11.00 | COc1cc(-c2cnn3cc(OCCN4CCOCC4)ccc23)cc2c1C(=O)N(CC(F)(F)F)CC2 [Cpd 1, 8-methoxy-6-[6-(2-morpholinoethoxy)pyrazolo[1,5-a]pyridin-3-yl]-2-(2,2,2-trifluoroethyl)-3,4-dihydroisoquinolin-1-one]
